Key:
[1] = system: Mino cells; assay: Antiproliferative effect, MTS cell viability assay, Mino cells; assay type: cell-based; conditions: Homo sapiens, MINO, Mino mantle cell lymphoma cells; read-out: IC50 (anti-proliferation) Mino cells
How it was run: (§1)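 Steps: seed B-cell lymphoma line; add compound at 0, 0.001, 0.01, 0.1, 1 or 10 μM; incubate 72 h; add MTS and read reduced tetrazolium (formazan) absorbance at 490 nm.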

[2] = system: JeKo-1 cells; assay: Antiproliferative effect, MTS cell viability assay, JeKo-1 cells; assay type: cell-based; conditions: Homo sapiens; JeKo-1 mantle cell lymphoma cells; read-out: IC50 (anti-proliferation) JeKO-1 cells
How it was run: as §1

[3] = biological target: T1, BTK (Homo sapiens, UniProt Q06187); assay: BTK degradation, DC50 and Dmax of Table 1 (cell line not given); assay type: cell-based; design: endogenous in cells; conditions: for DC50: concentration giving 50% reduction of BTK expression level
T1 sequence (Q06187 whole entry): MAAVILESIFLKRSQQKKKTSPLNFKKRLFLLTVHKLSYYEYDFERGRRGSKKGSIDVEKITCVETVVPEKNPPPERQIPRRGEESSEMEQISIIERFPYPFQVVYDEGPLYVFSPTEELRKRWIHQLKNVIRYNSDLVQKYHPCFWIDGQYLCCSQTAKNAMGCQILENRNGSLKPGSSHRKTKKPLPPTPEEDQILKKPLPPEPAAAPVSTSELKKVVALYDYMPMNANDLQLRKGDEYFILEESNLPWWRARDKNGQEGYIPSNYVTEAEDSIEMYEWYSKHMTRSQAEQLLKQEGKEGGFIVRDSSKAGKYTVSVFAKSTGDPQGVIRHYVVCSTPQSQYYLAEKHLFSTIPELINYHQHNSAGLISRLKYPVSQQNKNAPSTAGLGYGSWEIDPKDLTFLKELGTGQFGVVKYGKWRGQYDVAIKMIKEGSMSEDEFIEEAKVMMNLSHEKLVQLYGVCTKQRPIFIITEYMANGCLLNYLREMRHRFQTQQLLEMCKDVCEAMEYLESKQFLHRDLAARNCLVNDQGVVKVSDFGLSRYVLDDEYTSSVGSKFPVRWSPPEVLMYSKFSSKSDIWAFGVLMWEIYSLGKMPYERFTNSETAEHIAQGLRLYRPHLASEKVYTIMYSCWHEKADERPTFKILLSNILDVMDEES

[4] = biological target: T1, BTK; assay: Degradation of BTK protein in Namalwa cells (Western blot; DC50, Dmax); conditions: Namalwa B lymphocyte cells, Western blot; for degradation of BTK protein: various concentrations, 24 hours

Compound	Dmax [3] [%]	DC50 [3] [µM]	degradation of BTK protein at 10^−6 M [4]	degradation of BTK protein [4]	IC50 [1] [µM]	IC50 [2] [µM]
Nc1ncnc2c1c(-c1ccc(Oc3ccccc3)cc1)nn2C1CCN(CC2CCN(C(=O)N3CCC(CN4CCN(c5ccc6c(c5)C(=O)N(C5CCC(=O)NC5=O)C6=O)CC4)CC3)CC2)CC1 (stereo not shown) [Compound 41, 5-(4-((1-(4-((4-(4-amino-3-(4-phenoxyphenyl)-1H-pyrazolo(3,4-d)pyrimidin-1-yl)piperidin-1-yl)methyl)piperidine-1-carbonyl)piperidin-4-yl)methyl)piperazin-1-yl)-2-(2,6-dioxopiperidin-3-yl)isoindoline-1,3-dione]	> 90	0.01 to 0.05	degradation	dose-dependent degradation	< 1	1 to 10
Nc1ncnc2c1c(-c1ccc(Oc3ccccc3)cc1)nn2[C@@H]1CCCN(C(=O)N2CCN(c3ccc4c(c3)C(=O)N(C3CCC(=O)NC3=O)C4=O)CC2)C1 (stereo partly drawn) [Compound 45, 5-(4-((R)-3-(4-amino-3-(4-phenoxyphenyl)-1H-pyrazolo[3,4-d]pyrimidin-1-yl)piperidine-1-carbonyl)piperazin-1-yl)-2-(2,6-dioxopiperidin-3-yl)isoindoline-1,3-dione]	> 50	> 0.05	degradation	–	> 10	> 10
Nc1ncnc2c1c(-c1ccc(Oc3ccccc3)cc1)nn2[C@@H]1CCCN(C(=O)N2CCC(C3CCN(c4ccc5c(c4)C(=O)N(C4CCC(=O)NC4=O)C5=O)CC3)CC2)C1 (stereo partly drawn) [Compound 49, 5-(1′-((R)-3-(4-amino-3-(4-phenoxyphenyl)-1H-pyrazolo(3,4-d)pyrimidin-1-yl)piperidine-1-carbonyl)-(4,4′-bipiperidin)-1-yl)-2-(2,6-dioxopiperidin-3-yl)isoindoline-1,3-dione]	> 90	0.01 to 0.05	degradation	–	1 to 10	1 to 10
Nc1ncnc2c1c(-c1ccc(Oc3ccccc3)cc1)nn2[C@@H]1CCCN(C(=O)N2CCC(CCN3CCN(c4ccc5c(c4)C(=O)N(C4CCC(=O)NC4=O)C5=O)CC3)CC2)C1 (stereo partly drawn) [Compound 63, 5-(4-(2-(1-((R)-3-(4-amino-3-(4-phenoxyphenyl)-1H-pyrazolo(3,4-d)pyrimidin-1-yl)piperidine-1-carbonyl)piperidin-4-yl)ethyl)piperazin-1-yl)-2-(2,6-dioxopiperidin-3-yl)isoindoline-1,3-dione]	> 90	< 0.01	degradation	dose-dependent degradation	1 to 10	1 to 10

Now from value to compound, other results behind:

Dmax [3] [%]	DC50 [3] [µM]	degradation of BTK protein at 10^−6 M [4]	degradation of BTK protein [4]	Compound	IC50 [1] [µM]	IC50 [2] [µM]
> 90	< 0.01	degradation	dose-dependent degradation	Nc1ncnc2c1c(-c1ccc(Oc3ccccc3)cc1)nn2[C@@H]1CCCN(C(=O)N2CCC(N3CCN(c4ccc5c(c4)C(=O)N(C4CCC(=O)NC4=O)C5=O)CC3)CC2)C1 (stereo partly drawn) [Compound 51, 5-(4-(1-((R)-3-(4-amino-3-(4-phenoxyphenyl)-1H-pyrazolo(3,4-d)pyrimidin-1-yl)piperidine-1-carbonyl)piperidin-4-yl)piperazin-1-yl)-2-(2,6-dioxopiperidin-3-yl)isoindoline-1,3-dione]	< 1	< 1
> 90	0.01 to 0.05	degradation	dose-dependent degradation	Nc1ncnc2c1c(-c1ccc(Oc3ccccc3)cc1)nn2[C@@H]1CCCN(C(=O)N2CCC(CN3CCN(c4ccc5c(c4)C(=O)N(C4CCC(=O)NC4=O)C5=O)CC3)CC2)C1 (stereo partly drawn) [Compound 55, 5-(4-((1-((R)-3-(4-amino-3-(4-phenoxyphenyl)-1H-pyrazolo(3,4-d)pyrimidin-1-yl)piperidine-1-carbonyl)piperidin-4-yl)methyl)piperazin-1-yl)-2-(2,6-dioxopiperidin-3-yl)isoindoline-1,3-dione]	< 1	< 1

— patent US12139492B2 (Endotarget Inc., priority 2021, dated 2024)
